The source of these data is the C3SDB collision cross section collection.

“And” between values parts separate entries of the source, which are not always exact repeats. Equal entries are not always repeated.

The conditions of one data set: [M+H]+; instrument: TW; Major Mix IMS/Tof Calibration Kit (Waters).
With `COc1ccc2c3c1O[C@H]1C(=O)CC[C@H]4[C@@H](C2)N(C)CC[C@]314` [Hydrocodone], the “collision cross section (N2)” value was 167.4 Å².

Regarding `OCCOCCN1CCN(C(c2ccccc2)c2ccc(Cl)cc2)CC1` (configuration not stated) [Hydroxyzine], the “collision cross section (N2)” value was 197.4 Å².

In the case of `Cc1ccc(NC(=O)c2ccc(CN3CCN(C)CC3)cc2)cc1Nc1nccc(-c2cccnc2)n1` [Imatinib], the “collision cross section (N2)” value is given as 214.6 Å².

Consider `CC1Cc2ccccc2N1NC(=O)c1ccc(Cl)c(S(N)(=O)=O)c1` (configuration not stated) [Indapamide], for which the “collision cross section (N2)” value was found to be 185.6 Å².

In the case of `COc1ccc2c(c1)c(CC(=O)O)c(C)n2C(=O)c1ccc(Cl)cc1` [Indomethacin], the “collision cross section (N2)” value was 179.5 Å².

In the case of `CCCCC1=NC2(CCCC2)C(=O)N1Cc1ccc(-c2ccccc2-c2nn[nH]n2)cc1` [Irbesartan], the “collision cross section (N2)” value turned out to be 200.8 Å².

As to `NC1(c2ccccc2Cl)CCCCC1=O` (configuration not stated) [Ketamine-M nor], the “collision cross section (N2)” value is 147.1 Å².

For the compound `CNC1(c2ccccc2Cl)CCCCC1=O` (configuration not stated) [Ketamine], the “collision cross section (N2)” value is 149.2 Å².

On to `COc1ccc2c(c1)N(C[C@H](C)CN(C)C)c1ccccc1S2` [Levomepromazine], for which the “collision cross section (N2)” value came out at 176.8 Å².

Take `CNC(=O)C(CCN1CCC(O)(c2ccc(Cl)cc2)CC1)(c1ccccc1)c1ccccc1` [Loperamide-M Desmethyl]: the “collision cross section (N2)” value was 218.7 Å².

For the compound `CCOC(=O)N1CCC(=C2c3ccc(Cl)cc3CCc3cccnc32)CC1` [Loratadine], the “collision cross section (N2)” value was determined as 187.4 Å².

For `O=C1Nc2ccc(Cl)cc2C(c2ccccc2Cl)=NC1O` (configuration not stated) [Lorazepam], the “collision cross section (N2)” value is 165.8 Å².

For `CNC(C)Cc1ccc2c(c1)OCO2` (configuration not stated) [MDMA], the “collision cross section (N2)” value is 144.9 Å².

Turning to `CCCC(C(=O)c1ccc2c(c1)OCO2)N1CCCC1` (configuration not stated) [MDPV], the “collision cross section (N2)” value was found to be 166.7 Å².

Take `CCOC(=O)CC(SP(=S)(OC)OC)C(=O)OCC` (configuration not stated) [Malathion]: the “collision cross section (N2)” value amounted to 165.9 Å².

For `NCCCC12CCC(c3ccccc31)c1ccccc12` [Maprotiline-M N-desmethyl], the “collision cross section (N2)” value was 163.1 Å².

As for `Cc1cccc(CN2CCN(C(c3ccccc3)c3ccc(Cl)cc3)CC2)c1` (configuration not stated) [Meclozine], the “collision cross section (N2)” value came out at 208.2 Å².

Take `CN1CCN=C(c2ccccc2)c2cc(Cl)ccc21` [Medazepam]: the “collision cross section (N2)” value worked out at 160.8 Å².

For the compound `Cc1cnc(NC(=O)C2=C(O)c3ccccc3S(=O)(=O)N2C)s1` [Meloxicam], the “collision cross section (N2)” value was 173.9 Å².

Regarding `COc1ccc(CN(CCN(C)C)c2ccccn2)cc1` [Mepyramine], the “collision cross section (N2)” value was 169.6 Å².

For the compound `CCC(=O)C(CC(C)N(C)C)(c1ccccc1)c1ccccc1` (configuration not stated) [Methadone], the “collision cross section (N2)” value is 177.7 Å².

As for `COC(=O)C(c1ccccc1)C1CCCCN1` (configuration not stated) [Methylphenidate], the “collision cross section (N2)” value came out at 154.2 Å².

In the case of `CS(=O)(=O)c1ccc2c(c1)N(CCCN1CCC(C(N)=O)CC1)c1ccccc1S2` [Metopimazine], the “collision cross section (N2)” value was 196.3 Å².

For `Cc1ncc([N+](=O)[O-])n1CCO` [Metronidazole], the “collision cross section (N2)” value was found to be 132.4 Å².

For the compound `Cc1ncc2n1-c1ccc(Cl)cc1C(c1ccccc1F)=NC2` [Midazolam], the “collision cross section (N2)” value is on record as 172.8 Å².

Take `CN1CC[C@]23c4c5ccc(O)c4O[C@H]2[C@@H](O)C=C[C@H]3[C@H]1C5` [Morphine]: the “collision cross section (N2)” value is listed as 164 Å².

For the compound `CCc1nn(CCCN2CCN(c3cccc(Cl)c3)CC2)c(=O)n1CCOc1ccccc1` [Nefazodone], the “collision cross section (N2)” value is 211.7 Å².

As for `Nc1ccc2c(c1)C(c1ccccc1)=NCC(=O)N2` [Nitrazepam-M 7-amino], the “collision cross section (N2)” value was determined as 158.1 Å².

Consider `CCOC(=O)C1=C(C)NC(C)=C(C(=O)OC)C1c1cccc([N+](=O)[O-])c1` (configuration not stated) [Nitrendipine], for which the “collision cross section (N2)” value is reported as 182.2 Å².

Regarding `Cc1nccn1CC1CCc2c(c3cccc(O)c3n2C)C1=O` (configuration not stated) [Ondansetron-M 8-hydroxy], the “collision cross section (N2)” value was 173.7 Å².

`O=C1Nc2ccc(Cl)cc2C(c2ccccc2)=NC1O` (configuration not stated) [Oxazepam]: the “collision cross section (N2)” value worked out at 162.3 Å².

Turning to `COc1ccc2c3c1O[C@H]1C(=O)CC[C@@]4(O)[C@@H](C2)N(C)CC[C@]314` [Oxycodone], the “collision cross section (N2)” value is recorded as 168.3 Å².

With `CCC(=O)NS(=O)(=O)c1ccc(-c2c(-c3ccccc3)noc2C)cc1` [Parecoxib], the “collision cross section (N2)” value worked out at 189.2 Å².

For the compound `N#Cc1ccc2c(c1)N(CCCN1CCC(O)CC1)c1ccccc1S2` [Periciazine], the “collision cross section (N2)” value stood at 186.4 Å².

On to `OCCN1CCN(CCCN2c3ccccc3Sc3ccc(Cl)cc32)CC1` [Perphenazine], for which the “collision cross section (N2)” value came to 193.2 Å².

With `CCOc1ccc(NC(C)=O)cc1` [Phenacetin], the “collision cross section (N2)” value is 139.4 Å².

For the compound `CN1C(C(=O)Nc2ccccn2)=C(O)c2ccccc2S1(=O)=O` [Piroxicam], the “collision cross section (N2)” value was 170.9 Å².

Turning to `O=C1CN=C(c2ccccc2)c2cc(Cl)ccc2N1CC1CC1` [Prazepam], the “collision cross section (N2)” value was found to be 174 Å².

Consider `COc1cc2nc(N3CCN(C(=O)c4ccco4)CC3)nc(N)c2cc1OC` [Prazosin], for which the “collision cross section (N2)” value is 192.7 Å².

For the compound `CN1CCN(CCCN2c3ccccc3Sc3ccc(Cl)cc32)CC1` [Prochlorperazine], the “collision cross section (N2)” value was 183.7 Å².

Turning to `CN(C)CCc1c[nH]c2cccc(OP(=O)(O)O)c12` [Psilocybine], the “collision cross section (N2)” value is 157.3 Å².

Consider `CCOC(=O)[C@H](CCc1ccccc1)N[C@@H](C)C(=O)N1[C@H](C(=O)O)C[C@@H]2CCC[C@@H]21` [Ramipril], for which the “collision cross section (N2)” value came out at 197 Å².

With `Cc1nc2n(c(=O)c1CCN1CCC(c3noc4cc(F)ccc34)CC1)CCCC2` [Risperidone], the “collision cross section (N2)” value was 205.5 Å².

For `CCN(C)C(=O)Oc1cccc([C@H](C)N(C)C)c1` [Rivastigmine], the “collision cross section (N2)” value is 165 Å².

On to `OCc1cc([C@@H](O)CNCCCCCCOCCCCc2ccccc2)ccc1O` [Salmeterol], for which the “collision cross section (N2)” value is 202.9 Å².

For the compound `CC(C)NCC(O)c1ccc(NS(C)(=O)=O)cc1` (configuration not stated) [Sotalol], the “collision cross section (N2)” value is on record as 167 Å².

In the case of `C[C@]12Cc3cn[nH]c3C[C@@H]1CC[C@@H]1[C@@H]2CC[C@@]2(C)[C@H]1CC[C@]2(C)O` [Stanozolol], the “collision cross section (N2)” value was 188.1 Å².

For `O=C1C[C@@H]2OCC=C3CN4CC[C@]56c7ccccc7N1[C@H]5[C@H]2[C@H]3C[C@H]46` [Strychnine], the “collision cross section (N2)” value was determined as 172 Å².

In the case of `Cc1cc(NS(=O)(=O)c2ccc(N)cc2)no1` [Sulfamethoxazole], the “collision cross section (N2)” value was determined as 151 Å².

As for `CC1=C(CC(=O)O)c2cc(F)ccc2/C1=C\c1ccc(S(C)=O)cc1` (configuration not stated) [Sulindac], the “collision cross section (N2)” value was determined as 192.6 Å².

As for `CNS(=O)(=O)Cc1ccc2[nH]cc(CCN(C)C)c2c1` [Sumatriptan], the “collision cross section (N2)” value is 162.1 Å².

As to `CC[C@@H](c1cccc(O)c1)[C@@H](C)CN(C)C` [Tapentadol], the “collision cross section (N2)” value came to 152.1 Å².

Take `CN(C/C=C/C#CC(C)(C)C)Cc1cccc2ccccc12` [Terbinafine]: the “collision cross section (N2)” value amounted to 187.2 Å².

Regarding `CSc1ccc2c(c1)N(CCC1CCCCN1C)c1ccccc1S2` (configuration not stated) [Thioridazine], the “collision cross section (N2)” value is 184.9 Å².

`Cc1ccsc1C(=CCCN1CCC[C@@H](C(=O)O)C1)c1sccc1C` [Tiagabine]: the “collision cross section (N2)” value is 184.5 Å².

As for `CC(C(=O)O)c1ccc(C(=O)c2ccccc2)s1` (configuration not stated) [Tiaprofenic acid], the “collision cross section (N2)” value is on record as 155.1 Å².

In the case of `COc1cc(Cc2cnc(N)nc2N)cc(OC)c1OC` [Trimethoprim], the “collision cross section (N2)” value was found to be 170.8 Å².

Consider `CNCCC=C1c2ccccc2CCc2ccccc21` [Triptyline-M nor], for which the “collision cross section (N2)” value turned out to be 164.5 Å².

In the case of `c1cnc2cc3c(cc2n1)[C@@H]1CNC[C@H]3C1` [Varenicline], the “collision cross section (N2)” value is 151 Å².

As for `O=C1Cc2cc(CCN3CCN(c4nsc5ccccc45)CC3)c(Cl)cc2N1` [Ziprasidone], the “collision cross section (N2)” value was 192.6 Å².

The conditions of a further data set: [M+H-H2O]+; instrument: DT; stepped-field.
As to `OCC1OC(OC2C(CO)OC(OC3C(CO)OC(OC4C(CO)OC(O)C(O)C4O)C(O)C3O)C(O)C2O)C(O)C(O)C1O` (configuration not stated) [(Hex)4], the “collision cross section (N2)” value stood at 234.7 Å².

Regarding `OCC1OC(OC2C(CO)OC(OC3C(CO)OC(OC4C(CO)OC(OC5C(CO)OC(OC6C(CO)OC(OC7C(CO)OC(OC8C(CO)OC(O)C(O)C8O)C(O)C7O)C(O)C6O)C(O)C5O)C(O)C4O)C(O)C3O)C(O)C2O)C(O)C(O)C1O` (configuration not stated) [(Hex)8], the “collision cross section (N2)” value is recorded as 333.8 Å².

As to `O=CC(OC1OC(CO)C(OC2OC(CO)C(O)C(O)C2O)C(OC2OC(CO)C(O)C(O)C2O)C1OC1OC(CO)C(O)C(O)C1O)C(OC1OC(CO)C(O)C(O)C1O)C(OC1OC(CO)C(O)C(O)C1O)C(COC1OC(CO)C(O)C(O)C1O)OC1OC(CO)C(O)C(O)C1O` (configuration not stated) [(Hex)9], the “collision cross section (N2)” value was 356.2 Å².

The data set is the same for the next values; noted with them: [M+K]+; instrument: DT; stepped-field.
As to `OCC1OC(OC2C(CO)OC(OC3C(CO)OC(OC4C(CO)OC(O)C(O)C4O)C(O)C3O)C(O)C2O)C(O)C(O)C1O` (configuration not stated) [(Hex)4], the “collision cross section (N2)” value came out at 236.6 Å².

Still in this data set, the particulars now being: [M+Na-H2O]+; instrument: DT; stepped-field.
As to `OCC1OC(OC2C(CO)OC(OC3C(CO)OC(OC4C(CO)OC(O)C(O)C4O)C(O)C3O)C(O)C2O)C(O)C(O)C1O` (configuration not stated) [(Hex)4], the “collision cross section (N2)” value stood at 234.8 Å².

Still in this data set, the particulars now being: [M+Na]+; instrument: DT; stepped-field.
Consider `OCC1OC(OC2C(CO)OC(OC3C(CO)OC(OC4C(CO)OC(OC5C(CO)OC(OC6C(CO)OC(OC7C(CO)OC(OC8C(CO)OC(O)C(O)C8O)C(O)C7O)C(O)C6O)C(O)C5O)C(O)C4O)C(O)C3O)C(O)C2O)C(O)C(O)C1O` (configuration not stated) [(Hex)8], for which the “collision cross section (N2)” value is 320.9 Å² and 338.8 Å².

As to `O=CC(OC1OC(CO)C(OC2OC(CO)C(O)C(O)C2O)C(OC2OC(CO)C(O)C(O)C2O)C1OC1OC(CO)C(O)C(O)C1O)C(OC1OC(CO)C(O)C(O)C1O)C(OC1OC(CO)C(O)C(O)C1O)C(COC1OC(CO)C(O)C(O)C1O)OC1OC(CO)C(O)C(O)C1O` (configuration not stated) [(Hex)9], the “collision cross section (N2)” value was 340.5 Å² and 351.9 Å².
